Source: PubChem BioAssay (NCI)
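A five-concentration, 48-hour dose response in 96-well plates underlies each endpoint, interpolated linearly between surrounding concentrations. At the GI50, growth is halved. TGI marks complete inhibition of growth.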

What was measured:
Experiment in all cases: NCI-60 cell line screen, 48 h
EKVX NSCLC = tested on: EKVX NSCLC
HCT-15 colon = tested on: HCT-15 colon
HL-60(TB) leukemia = tested on: HL-60(TB) leukemia
IGROV1 ovarian = tested on: IGROV1 ovarian
NCI-H23 lung = tested on: NCI-H23 lung
RPMI-8226 leukemia = tested on: RPMI-8226 leukemia
SK-OV-3 ovarian = tested on: SK-OV-3 ovarian
UACC-257 melanoma = tested on: UACC-257 melanoma
DU-145 prostate = tested on: DU-145 prostate
MDA-MB-435 = tested on: MDA-MB-435

Nn1c(N=Nc2c(O)[nH]c3c(Cl)cc(Cl)cc23)n[nH]c1=S
TGI (EKVX NSCLC): > 100 µM
TGI (HCT-15 colon): > 100 µM
TGI (HL-60(TB) leukemia): > 100 µM
TGI (IGROV1 ovarian): > 100 µM
TGI (NCI-H23 lung): > 100 µM
TGI (RPMI-8226 leukemia): > 100 µM
TGI (SK-OV-3 ovarian): > 100 µM
TGI (UACC-257 melanoma): > 100 µM

Cc1cccc(C(C)(C)C)c1NC(=O)CC1Sc2ccccc2NC1=O (stereo unspecified)
TGI (EKVX NSCLC): > 100 µM
TGI (HL-60(TB) leukemia): 89.9 µM
TGI (IGROV1 ovarian): > 100 µM
TGI (NCI-H23 lung): > 100 µM
TGI (RPMI-8226 leukemia): 46 µM
TGI (SK-OV-3 ovarian): > 100 µM
TGI (UACC-257 melanoma): > 100 µM

O=[N+]([O-])c1cccc(C2=NOC3C4CCC(C4)C23)c1 (stereo unspecified)
TGI (HCT-15 colon): > 100 µM
TGI (IGROV1 ovarian): > 100 µM
TGI (NCI-H23 lung): > 100 µM
TGI (RPMI-8226 leukemia): > 100 µM
TGI (SK-OV-3 ovarian): > 100 µM
TGI (UACC-257 melanoma): > 100 µM

COc1ccc2nc(NC(=O)C(=O)C(C#N)c3ccc(Cl)c(Cl)c3)sc2c1 (stereo unspecified)
TGI (EKVX NSCLC): > 100 µM
TGI (HCT-15 colon): > 100 µM
TGI (HL-60(TB) leukemia): > 100 µM
TGI (IGROV1 ovarian): > 100 µM
TGI (NCI-H23 lung): > 100 µM
TGI (RPMI-8226 leukemia): > 100 µM
TGI (SK-OV-3 ovarian): > 100 µM
TGI (UACC-257 melanoma): > 100 µM

Cc1cccc2nc3cccc(C(=O)NCCN(C)C)c3nc12
TGI (EKVX NSCLC): 2.03 µM
TGI (HCT-15 colon): 2.19 µM
TGI (HL-60(TB) leukemia): 12 µM
TGI (IGROV1 ovarian): 15.5 µM
TGI (NCI-H23 lung): 3.47 µM
TGI (SK-OV-3 ovarian): 6.74 µM
TGI (UACC-257 melanoma): 2.61 µM

COC(=O)C1=C(c2ccc3c(c2)OCO3)OC(c2cc(OC)c(OC)c(OC)c2)C1 (stereo unspecified)
TGI (EKVX NSCLC): > 100 µM
TGI (HCT-15 colon): 15.2 µM
TGI (IGROV1 ovarian): 9.53 µM
TGI (NCI-H23 lung): > 100 µM
TGI (RPMI-8226 leukemia): > 100 µM
TGI (SK-OV-3 ovarian): 8.09 µM
TGI (UACC-257 melanoma): > 100 µM

CCOC(=O)C1=C(Nc2ccc(Cl)c(Cl)c2)OC/C1=N\NS(=O)(=O)c1ccc(C)cc1
TGI (EKVX NSCLC): > 100 µM
TGI (HL-60(TB) leukemia): > 100 µM
TGI (IGROV1 ovarian): > 100 µM
TGI (NCI-H23 lung): > 100 µM
TGI (RPMI-8226 leukemia): 64.9 µM
TGI (SK-OV-3 ovarian): > 100 µM
TGI (UACC-257 melanoma): 61.7 µM

Cc1cc(N(CCC#N)CCC#N)ccc1C=Nc1ccc(C(=O)NN2C(=O)/C(=C/c3ccc(N(CCC#N)CCC#N)cc3)N=C2c2cc([N+](=O)[O-])ccc2Cl)cc1
TGI (EKVX NSCLC): > 100 µM
TGI (HCT-15 colon): > 100 µM
TGI (HL-60(TB) leukemia): > 100 µM
TGI (IGROV1 ovarian): > 100 µM
TGI (NCI-H23 lung): > 100 µM
TGI (RPMI-8226 leukemia): > 100 µM
TGI (SK-OV-3 ovarian): > 100 µM
TGI (UACC-257 melanoma): > 100 µM

Cc1nc(Nc2nc3ccccc3o2)nc(-c2cccc([N+](=O)[O-])c2)c1C(=O)Nc1ccc(F)c(Cl)c1
GI50 (DU-145 prostate): 2.95 µM
TGI (DU-145 prostate): > 100 µM
GI50 (HCT-15 colon): 2.29 µM
TGI (HCT-15 colon): > 100 µM
GI50 (HL-60(TB) leukemia): 2.15 µM
TGI (HL-60(TB) leukemia): 5.29 µM
GI50 (IGROV1 ovarian): 2.94 µM
TGI (IGROV1 ovarian): > 100 µM
GI50 (MDA-MB-435): 2.16 µM
TGI (MDA-MB-435): 8.01 µM
GI50 (NCI-H23 lung): 2.19 µM
TGI (NCI-H23 lung): 18.8 µM
GI50 (RPMI-8226 leukemia): 0.724 µM
TGI (RPMI-8226 leukemia): 4.26 µM
GI50 (SK-OV-3 ovarian): 2.8 µM
TGI (SK-OV-3 ovarian): > 100 µM
GI50 (UACC-257 melanoma): 2.31 µM
TGI (UACC-257 melanoma): 8.23 µM

O=C(CC1C(=O)Nc2ccccc2S1=O)Nc1ccc(Cl)cc1 (stereo unspecified)
TGI (HCT-15 colon): > 100 µM
TGI (HL-60(TB) leukemia): > 100 µM
TGI (IGROV1 ovarian): > 100 µM
TGI (NCI-H23 lung): > 100 µM
TGI (RPMI-8226 leukemia): > 100 µM
TGI (SK-OV-3 ovarian): 63.9 µM
TGI (UACC-257 melanoma): > 100 µM

COc1ccc(Nc2cc(C)nc(N3CCN(c4ccnc5cc(Cl)ccc45)CC3)n2)cc1
GI50 (DU-145 prostate): 6.57 µM
TGI (DU-145 prostate): > 100 µM
GI50 (HCT-15 colon): 2.06 µM
TGI (HCT-15 colon): > 100 µM
GI50 (HL-60(TB) leukemia): 3.12 µM
TGI (HL-60(TB) leukemia): 12.8 µM
GI50 (IGROV1 ovarian): 4.39 µM
TGI (IGROV1 ovarian): > 100 µM
GI50 (MDA-MB-435): 1.06 µM
TGI (MDA-MB-435): 6.43 µM
GI50 (NCI-H23 lung): 3.82 µM
TGI (NCI-H23 lung): > 100 µM
GI50 (RPMI-8226 leukemia): 2.18 µM
TGI (RPMI-8226 leukemia): 8.91 µM
GI50 (SK-OV-3 ovarian): 4.81 µM
TGI (SK-OV-3 ovarian): > 100 µM
GI50 (UACC-257 melanoma): 3.34 µM
TGI (UACC-257 melanoma): > 100 µM

CC1(C)OC(=O)C=C([O-])O1.CC1(C)OC(=O)C=C([O-])O1.CC[O-].CC[O-].[Ti+4]
GI50 (EKVX NSCLC): > 100 µM
TGI (EKVX NSCLC): > 100 µM
GI50 (HCT-15 colon): > 100 µM
TGI (HCT-15 colon): > 100 µM
GI50 (HL-60(TB) leukemia): > 100 µM
TGI (HL-60(TB) leukemia): > 100 µM
GI50 (IGROV1 ovarian): > 100 µM
TGI (IGROV1 ovarian): > 100 µM
GI50 (NCI-H23 lung): > 100 µM
TGI (NCI-H23 lung): > 100 µM
GI50 (RPMI-8226 leukemia): > 100 µM
TGI (RPMI-8226 leukemia): > 100 µM
GI50 (SK-OV-3 ovarian): > 100 µM
TGI (SK-OV-3 ovarian): > 100 µM
GI50 (UACC-257 melanoma): > 100 µM
TGI (UACC-257 melanoma): > 100 µM

Cc1ccccc1-n1c(C)nc(-c2ccccc2)cc1=O
TGI (EKVX NSCLC): > 100 µM
TGI (HCT-15 colon): > 100 µM
TGI (HL-60(TB) leukemia): > 100 µM
TGI (IGROV1 ovarian): > 100 µM
TGI (NCI-H23 lung): > 100 µM
TGI (SK-OV-3 ovarian): > 100 µM
TGI (UACC-257 melanoma): > 100 µM

O=C1C=CC(CC(=O)c2ccc3ccccc3c2)O1 (stereo unspecified)
TGI (EKVX NSCLC): > 100 µM
TGI (HCT-15 colon): 50.4 µM
TGI (HL-60(TB) leukemia): 37.3 µM
TGI (IGROV1 ovarian): 65.2 µM
TGI (NCI-H23 lung): 46.7 µM
TGI (SK-OV-3 ovarian): > 100 µM
TGI (UACC-257 melanoma): > 100 µM

Cc1ccc(NC(=O)C(=O)Cc2cc[n+]([O-])cc2)cc1
TGI (EKVX NSCLC): > 100 µM
TGI (HCT-15 colon): > 100 µM
TGI (HL-60(TB) leukemia): > 100 µM
TGI (IGROV1 ovarian): > 100 µM
TGI (NCI-H23 lung): > 100 µM
TGI (RPMI-8226 leukemia): > 100 µM
TGI (SK-OV-3 ovarian): > 100 µM
TGI (UACC-257 melanoma): > 100 µM

O=C(O)/C=C/C(=O)N1C/C(=C\c2ccccc2)C(=O)/C(=C/c2ccccc2)C1
TGI (EKVX NSCLC): 44.3 µM
TGI (HCT-15 colon): 20.6 µM
TGI (HL-60(TB) leukemia): 26.6 µM
TGI (IGROV1 ovarian): 31.9 µM
TGI (NCI-H23 lung): 23.9 µM
TGI (RPMI-8226 leukemia): 6.22 µM
TGI (SK-OV-3 ovarian): 42.7 µM
TGI (UACC-257 melanoma): 15.8 µM

COC1=C2CC(C)CC(OC)C(O)C(C)/C=C(\C)C(OC(N)=O)C(OC)/C=C\C=C(/C)C(=O)NC(=C(/C=N/N3CCCCC3)C1=O)C2=O (stereo unspecified)
TGI (DU-145 prostate): 32.9 µM
TGI (EKVX NSCLC): 14.7 µM
TGI (HCT-15 colon): 28.6 µM
TGI (HL-60(TB) leukemia): 4.32 µM
TGI (IGROV1 ovarian): 27 µM
TGI (NCI-H23 lung): 35.3 µM
TGI (RPMI-8226 leukemia): 42 µM
TGI (SK-OV-3 ovarian): 55.7 µM
TGI (UACC-257 melanoma): 27.7 µM

N#CC1=C(Cl)NC(Cl)=C(C#N)C1c1c(Cl)cccc1Cl
TGI (EKVX NSCLC): > 100 µM
TGI (HCT-15 colon): 29.7 µM
TGI (HL-60(TB) leukemia): 37.5 µM
TGI (IGROV1 ovarian): > 100 µM
TGI (NCI-H23 lung): > 100 µM
TGI (RPMI-8226 leukemia): 46.4 µM
TGI (SK-OV-3 ovarian): 88.8 µM
TGI (UACC-257 melanoma): 50.3 µM

CC12Oc3ccc4ccccc4c3CC1Cc1c(ccc3ccccc13)O2 (stereo unspecified)
TGI (EKVX NSCLC): > 100 µM
TGI (HL-60(TB) leukemia): > 100 µM
TGI (NCI-H23 lung): > 100 µM
TGI (UACC-257 melanoma): > 100 µM

CC(C)c1cc(OCC(O)CO)cc(C(C)C)c1 (stereo unspecified)
TGI (EKVX NSCLC): > 100 µM
TGI (HCT-15 colon): > 100 µM
TGI (HL-60(TB) leukemia): > 100 µM
TGI (IGROV1 ovarian): > 100 µM
TGI (NCI-H23 lung): > 100 µM
TGI (SK-OV-3 ovarian): > 100 µM
TGI (UACC-257 melanoma): > 100 µM

Cn1c(=O)c(Oc2ccc(F)cc2F)cc2cnc(NCCS(C)(=O)=O)nc21
GI50 (DU-145 prostate): > 25 µM
TGI (DU-145 prostate): > 25 µM
GI50 (HCT-15 colon): > 25 µM
TGI (HCT-15 colon): > 25 µM
GI50 (HL-60(TB) leukemia): > 25 µM
TGI (HL-60(TB) leukemia): > 25 µM
GI50 (IGROV1 ovarian): > 25 µM
TGI (IGROV1 ovarian): > 25 µM
GI50 (MDA-MB-435): > 25 µM
TGI (MDA-MB-435): > 25 µM
GI50 (NCI-H23 lung): > 25 µM
TGI (NCI-H23 lung): > 25 µM
GI50 (RPMI-8226 leukemia): > 25 µM
TGI (RPMI-8226 leukemia): > 25 µM
GI50 (SK-OV-3 ovarian): > 25 µM
TGI (SK-OV-3 ovarian): > 25 µM
GI50 (UACC-257 melanoma): > 25 µM
TGI (UACC-257 melanoma): > 25 µM

COC(=O)C1=CC2OC1(C)CCC2=O (stereo unspecified)
TGI (EKVX NSCLC): > 100 µM
TGI (HCT-15 colon): > 100 µM
TGI (HL-60(TB) leukemia): 80.4 µM
TGI (IGROV1 ovarian): > 100 µM
TGI (NCI-H23 lung): > 100 µM
TGI (RPMI-8226 leukemia): > 100 µM
TGI (SK-OV-3 ovarian): > 100 µM
TGI (UACC-257 melanoma): > 100 µM
